According to paper PMC7525093, “Bis-Quinolinium Cyclophane Blockers of SK Potassium Channels Are Antagonists of M3 Muscarinic Acetylcholine Receptors” (Frontiers in Pharmacology, 2020):

Columns and labels:
mouse trachea = assay: Isometric tracheal tension measurement (organ bath)
Method: (§1) Mice used in these studies were BALB/C mice from Jackson Labs. All animal procedures were reviewed and approved by the University of Texas Health Science Center at San Antonio Institutional Animal Care and Use Committee. For tracheal constriction studies, animals were deeply anesthetized with isoflurane and then sacrificed by cervical dislocation. Isometric tracheal contraction measurements were performed as previously described ([Semenov et al., 2012]). Trachea were removed and surrounding tissues dissected in ice-cold physiologic saline solution (PSS) consisting of 119 mM NaCl, 4.7 mM KCl, 2.0 mM CaCl2, 1.0 mM KH2PO4, 1.17 mM MgSO4, 18 mM NaHCO3, 0.026 mM EDTA, 11 mM glucose, and 12.5 mM sucrose. Trachea were cut below the pharynx and above the primary bronchus bifurcation. Two metal wires, attached to a force transducer and micrometer (Radnoti, LLC), were threaded into the lumen of the trachea. Trachea were placed into an oxygenated organ bath (95% O2, 5% CO2), at 37°C, pH 7.35 (after bubbling with 95% O2–5% CO2). Tracheal resting tension was readjusted to 1 gram over 1 h and then challenged with 67 mM potassium PSS with NaCl adjusted to 56.7 mM to maintain proper osmolarity (KPS). Trachea were challenged two or more times until reproducible contractile responses were achieved. All subsequent experimental drug responses were normalized to the KPS response. Bladder measurements were conducted in a similar manner as trachea with identical solutions. The bladder was excised and formed into a ring by cutting anterior and posterior portions before mounting on metal wires for force measurements. For the aorta preparation, the ascending thoracic aorta was excised and cut into 2–3 mm sections before mounting on wires for force measurements.

bladder = assay: Isometric bladder ring tension measurement; set-up: species or system mouse; conditions: 3.5 μM; 0.5 μM carbachol
Method: as §1, with “Bladder measurements were conducted in a similar manner as trachea with identical solutions. The bladder was excised and formed into a ring by cutting anterior and posterior portions before mounting on metal wires for force measurements. For the aorta preparation, the ascending thoracic aorta was excised and cut into 2–3 mm sections before mounting on wires for force measurements.” left out

M1 muscarinic receptor = target: T1, M1 muscarinic receptor (Homo sapiens, UniProt P11229); assay: R-CEPIAer ER calcium assay, CHO cells transiently transfected with M1 receptor; assay type: cell-based
T1 construct: expressed in transfected cells; host or cells: CHO cells, transiently co-transfected with pCMV R-CEPIAer
T1 sequence (P11229 1-460): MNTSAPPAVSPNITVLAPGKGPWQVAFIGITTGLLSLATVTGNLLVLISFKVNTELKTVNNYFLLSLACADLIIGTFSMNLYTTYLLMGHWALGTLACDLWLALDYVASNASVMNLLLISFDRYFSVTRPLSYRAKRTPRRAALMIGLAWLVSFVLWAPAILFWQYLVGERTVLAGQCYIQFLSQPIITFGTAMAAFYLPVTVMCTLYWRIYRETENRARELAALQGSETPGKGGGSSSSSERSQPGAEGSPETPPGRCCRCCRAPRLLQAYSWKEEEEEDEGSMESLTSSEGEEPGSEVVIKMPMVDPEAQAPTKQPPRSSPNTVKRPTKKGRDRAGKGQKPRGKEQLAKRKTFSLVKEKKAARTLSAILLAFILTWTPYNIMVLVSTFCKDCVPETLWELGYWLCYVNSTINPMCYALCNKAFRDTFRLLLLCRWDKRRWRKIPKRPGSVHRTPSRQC
Method: [Worded in the source for another target; used here, by the source, with some conditions changed.] (§2) The binding of antagonists to Gq-coupled receptors was determined by measuring IP3-mediated calcium depletion from the endoplasmic reticulum (ER). This was accomplished using CHO-K1 cells stably transfected with human M3 muscarinic acetylcholine receptor (CEM3000000, cDNA Resource Center, Bloomsburg University) and R-CEPIAer, a low affinity ER-targeted calcium indicator fluorescent protein ([Suzuki et al., 2014]). R-CEPIAer reporting of ER calcium concentration was assessed using 564 nm excitation light (>590 long-pass emission) at 20 second intervals on a Nikon swept-field confocal microscope using slit-scan mode, 2x2 Binning, and 100 millisecond frames. F/Fmax was fluorescence intensity normalized to maximal fluorescence intensity during the experiment. The response of cells to Gq-coupled receptor agonist were measured as the change in F/Fmax (ΔF/Fmax) from preagonist value to fluorescence minimum during agonist application (that occurs by IP3-mediated ER calcium depletion). […] Perfusion of each agonist application was for 2 min, while the antagonist overlapped and preceded the second agonist application by 3 min. […] IC50 was calculated by assaying fractional inhibition using a dose-response of antagonist concentrations (i.e. Figure 1D ). […]

SK2 = target: SK2; set-up: method as in Benton D.C. et al., 2013; conditions: 125I-Apamin competition; ref Benton D.C. et al., 2013; read-out: Ki, SK2 channels; cited from earlier work
histamine receptor H1 = target: T2, histamine receptor H1 (Homo sapiens, UniProt P35367); assay: R-CEPIAer ER calcium assay, CHO cells transfected with H1 receptor; assay type: cell-based; conditions: data not shown
T2 construct: expressed in transfected cells; host or cells: CHO cells, transiently co-transfected with pCMV R-CEPIAer
Method: as §2

T2 sequence (P35367 whole entry): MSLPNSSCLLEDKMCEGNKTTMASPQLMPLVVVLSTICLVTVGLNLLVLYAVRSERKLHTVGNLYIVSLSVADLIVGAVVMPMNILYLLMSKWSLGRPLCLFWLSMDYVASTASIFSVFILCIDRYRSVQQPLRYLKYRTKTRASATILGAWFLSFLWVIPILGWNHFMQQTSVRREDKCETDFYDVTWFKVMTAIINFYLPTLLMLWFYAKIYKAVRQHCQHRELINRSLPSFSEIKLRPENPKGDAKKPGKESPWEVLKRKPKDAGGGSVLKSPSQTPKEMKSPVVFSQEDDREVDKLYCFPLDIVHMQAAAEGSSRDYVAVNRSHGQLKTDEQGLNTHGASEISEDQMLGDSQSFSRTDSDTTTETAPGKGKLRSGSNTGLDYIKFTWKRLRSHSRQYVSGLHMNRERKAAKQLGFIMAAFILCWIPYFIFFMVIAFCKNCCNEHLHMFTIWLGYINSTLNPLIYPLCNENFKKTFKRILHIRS

c1cc2cc(c1)C[n+]1ccc(c3ccccc31)NCc1ccc(cc1)CNc1cc[n+](c3ccccc13)C2 [UCL 1684, 6,12,19,20,25,26-Hexahydro-5,27:13,18:21,24-trietheno-11,7-metheno-7H-dibenzo [b,n] [1,5,12,16]tetraazacyclotricosine-5,13-diium dibromide]
Relaxation of precontracted trachea (mouse trachea): near complete relaxation
Relaxation response of trachea, single dose (mouse trachea; 3.5 μM, 0.5 μM carbachol): 95.4 ± 2.4
IC50 (mouse trachea; Mus musculus, read-out: IC50, relaxation of carbachol-precontracted trachea): 430 nM
Reduction of carbachol-evoked ASM contractions (mouse trachea; carbachol-evoked): > 90%
Washout needed to restore tracheal responses to cholinergic agonists (mouse trachea; data not shown): at least an hour of washout
Relaxation response of bladder (bladder): 31.4 ± 8.4
IC50 (M1 muscarinic receptor): 120 nM
Hill slope of inhibition curve, M1 receptor (M1 muscarinic receptor; 0.5 μM carbachol): 0.67 ± 0.5
Ki (SK2): 1 nM
Fractional inhibition of H1 receptor response (histamine receptor H1): -0.008 ± 0.04
